Laboratory results reported in publication PMC8713164, “Development of a 1,2,4-Triazole-Based Lead Tankyrase Inhibitor: Part II” (Journal of Medicinal Chemistry, 2021).
Values joined by “and” are separate entries in the source; they are usually repeats but may differ in a detail not shown here. Equal entries are not always repeated. Where two headings read alike, the source gives them in different places.

Legend:
TNKS2 = biological target: T1, TNKS2 (Homo sapiens, UniProt Q9H2K2); experiment: TNKS2 biochemical assay (unreacted NAD+ fluorescence); conditions: TNKS2 5 nM, 500 nM NAD+, 20 h; quadruplicates; 95% confidence intervals in parentheses; 24: averages of multiple independent measurements; read-out: IC50 TNKS2
T1 construct: TNKS2 (residues 873–1162); made in house
T1 sequence (Q9H2K2 873-1162): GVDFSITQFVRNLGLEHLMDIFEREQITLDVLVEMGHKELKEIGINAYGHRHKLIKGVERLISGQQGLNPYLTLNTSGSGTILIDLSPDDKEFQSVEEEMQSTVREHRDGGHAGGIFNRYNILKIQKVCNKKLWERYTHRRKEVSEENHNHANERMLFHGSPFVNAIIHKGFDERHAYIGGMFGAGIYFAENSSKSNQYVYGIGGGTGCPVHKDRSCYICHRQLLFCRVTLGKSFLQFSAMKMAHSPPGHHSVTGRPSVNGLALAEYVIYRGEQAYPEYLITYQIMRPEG
Procedure: New compounds were prepared in half-log dilution series, and the reactions were carried out in quadruplicates with protein and compound controls to exclude the effect of compound autofluorescence. All reactions were performed at ambient temperature. TNKS1 (20 nM) or TNKS2 (5 nM) was incubated for 20 h in assay buffer (50 mM Bis-Tris propane (BTP), pH 7.0, 0.5 mM Tris(2-carboxyethyl)phosphine (TCEP), 0.01% Triton X-100) with compound and 10 μM or 500 nM NAD^+, respectively.

WNT/β-catenin signaling = experiment: cellular (HEK293) WNT/β-catenin signaling luciferase reporter assay; type: cell-based, human
[1] = Homo sapiens, HEK293, read-out: IC50 HEK293, HEK293 WNT/β-catenin signaling reporter assay, triplicates, 24: averages of multiple independent measurements
[2] = read-out: IC50 HEK293, HEK293 WNT/β-catenin signaling reporter assay, triplicates, 24: averages of multiple independent measurements
[3] = Homo sapiens, HEK293, read-out: IC50 HEK293

SMILES | IC50 (TNKS2) | IC50 (WNT/β-catenin signaling; [1]) [nM] | IC50 (WNT/β-catenin signaling; [2]) [nM] | IC50 (WNT/β-catenin signaling; [3]) [nM]
CCOc1ccc(-c2nnc([C@H]3C[C@H](NC(=O)c4ccccn4)C3)n2-c2ccc(Cl)s2)nc1 [Compound 14, N-(trans-3-(4-(5-Chlorothiophen-2-yl)-5-(5-ethoxypyridin-2-yl)-4H-1,2,4-triazol-3-yl)cyclobutyl)picolinamide] | 12 nM | 27 |  | 
O=C(N[C@H]1C[C@H](c2nnc(-c3cnccn3)n2-c2ccccc2F)C1)c1ccccn1 [Compound 10, N-(trans-3-(4-(-2-Fluorophenyl)-5-(pyrazin-2-yl)-4H-1,2,4-triazol-3-yl)cyclobutyl)picolinamide] | 93 nM | 355 |  | 
CCOc1ccc(-c2nnc([C@H]3C[C@H](NC(=O)c4cccc5ncc(C)nc45)C3)n2-c2ccccc2F)nc1 [Compound 26, N-(trans-3-(5-(5-Ethoxypyridin-2-yl)-4-(2-fluorophenyl)-4H-1,2,4-triazol-3-yl)cyclobutyl)-3-methylquinoxaline-5-carboxamide] | 1.5 nM | 2.2 |  | 
O=C(N[C@H]1C[C@H](c2nnc(-c3ccccc3)n2-c2ccccc2F)C1)c1ccccn1 [Compound 9, N-(trans-3-(4-(2-Fluorophenyl)-5-phenyl-4H-1,2,4-triazol-3-yl)cyclobutyl)picolinamide] | 220 nM and 216 nM | 789 |  | 
CCOc1ccc(-c2nnc([C@H]3C[C@H](NC(=O)c4ccnc5cc(F)cnc45)C3)n2-c2ccc(C)s2)nc1 [Compound 22b, N-(trans-3-(5-(5-Ethoxypyridin-2-yl)-4-(5-methylthiophen-2-yl)-4H-1,2,4-triazol-3-yl)cyclobutyl)-7-fluoro-1,5-naphthyridine-4-carboxamide] | 1.6 nM | 1 |  | 
CCOc1ccc(-c2nnc([C@H]3C[C@H](NC(=O)c4ccnc5cccnc45)C3)n2-c2cccnc2)nc1 [Compound 17a, N-(trans-3-(5-(5-Ethoxypyridin-2-yl)-4-(pyridin-3-yl)-4H-1,2,4-triazol-3-yl)cyclobutyl)-1,5-naphthyridine-4-carboxamide] | 4.5 nM | 16 |  | 
CCOc1ccc(-c2nnc([C@H]3C[C@H](NC(=O)c4cccc5cccnc45)C3)n2-c2ccc(C)s2)nc1 [Compound 23, N-(trans-3-(5-(5-Ethoxypyridin-2-yl)-4-(5-methylthiophen-2-yl)-4H-1,2,4-triazol-3-yl)cyclobutyl)quinoline-8-carboxamide] | 2.4 nM | 1 |  | 
CCOc1ccc(-c2nnc([C@H]3C[C@H](NC(=O)c4ccnc5cc(F)cnc45)C3)n2-c2cccnc2)nc1 [Compound 17b, N-(trans-3-(5-(5-Ethoxypyridin-2-yl)-4-(pyridin-3-yl)-4H-1,2,4-triazol-3-yl)cyclobutyl)-7-fluoro-1,5-naphthyridine-4-carboxamide] | 5.8 nM | 9.1 | 9 | 
CCOc1ccc(-c2nnc(C34CC(NC(=O)c5ccnc6cccnc56)(C3)C4)n2-c2cccnc2)nc1 [Compound 20, N-(3-(5-(5-Ethoxypyridin-2-yl)-4-(pyridin-3-yl)-4H-1,2,4-triazol-3-yl)bicyclo[1.1.1]pentan-1-yl)-1,5-naphthyridine-4-carboxamide] | 9.6 nM |  |  | 30
CCOc1ccc(-c2nnc([C@H]3C[C@H](NC(=O)c4ccccn4)C3)n2-c2ccccc2)nc1 [Compound 11, N-(trans-3-(5-(5-Ethoxypyridin-2-yl)-4-phenyl-4H-1,2,4-triazol-3-yl)cyclobutyl)picolinamide] | 5.2 nM | 65 |  | 
CCOc1ccc(-c2nnc([C@H]3C[C@H](NC(=O)c4ccnc5cc(F)cnc45)C3)n2-c2ccccn2)nc1 [Compound 16b, N-(trans-3-(5-(5-Ethoxypyridin-2-yl)-4-(pyridin-2-yl)-4H-1,2,4-triazol-3-yl)cyclobutyl)-7-fluoro-1,5-naphthyridine-4-carboxamide] | 8.5 nM | 8.7 | 9 | 
CCOc1ccc(-c2nnc([C@H]3C[C@H](NC(=O)c4ccccn4)C3)n2-c2cccc(Cl)c2)nc1 [Compound 12, N-(trans-3-(4-(3-Chlorophenyl)-5-(5-ethoxypyridin-2-yl)-4H-1,2,4-triazol-3-yl)cyclobutyl)picolinamide] | 13 nM | 83 |  | 
CCOc1ccc(-c2nnc(C34CC(NC(=O)c5ccnc6cccnc56)(C3)C4)n2-c2ccncc2)nc1 [Compound 21, N-(3-(5-(5-Ethoxypyridin-2-yl)-4-(pyridin-4-yl)-4H-1,2,4-triazol-3-yl)bicyclo[1.1.1]pentan-1-yl)-1,5-naphthyridine-4-carboxamide] | 9.4 nM |  |  | 43
CCOc1ccc(-c2nnc([C@H]3C[C@H](NC(=O)c4ccnc5cccnc45)C3)n2-c2ccccn2)nc1 [Compound 16a, N-(trans-3-(5-(5-Ethoxypyridin-2-yl)-4-(pyridin-2-yl)-4H-1,2,4-triazol-3-yl)cyclobutyl)-1,5-naphthyridine-4-carboxamide] | 5.8 nM | 36 |  | 
CCOc1ccc(-c2nnc(C34CC(NC(=O)c5ccnc6cccnc56)(C3)C4)n2-c2ccccn2)nc1 [Compound 19, N-(3-(5-(5-Ethoxypyridin-2-yl)-4-(pyridin-2-yl)-4H-1,2,4-triazol-3-yl)bicyclo[1.1.1]pentan-1-yl)-1,5-naphthyridine-4-carboxamide] | 13 nM |  |  | 20
CCOc1ccc(-c2nnc([C@H]3C[C@H](NC(=O)c4ccccn4)C3)n2-c2ccc(C)s2)nc1 [Compound 13, N-(trans-3-(5-(5-Ethoxypyridin-2-yl)-4-(5-methylthiophen-2-yl)-4H-1,2,4-triazol-3-yl)cyclobutyl)picolinamide] | 4.6 nM | 37 |  | 
O=C(N[C@H]1C[C@H](c2nnc(-c3ccc(OC(F)F)cn3)n2-c2ccccc2F)C1)c1cccc2nccnc12 [Compound 29a, N-(trans-3-(5-(5-(Difluoromethoxy)pyridin-2-yl)-4-(2-fluorophenyl)-4H-1,2,4-triazol-3-yl)cyclobutyl)quinoxaline-5-carboxamide] | 1.9 nM | 1.2 |  | 
O=C(N[C@H]1C[C@H](c2nnc(-c3ccc(OC4CC4)cn3)n2-c2ccccc2F)C1)c1ccccn1 [Compound 7, N-(trans-3-(5-(5-Cyclopropoxypyridin-2-yl)-4-(2-fluorophenyl)-4H-1,2,4-triazol-3-yl)cyclobutyl)picolinamide] | 8.6 nM | 49 |  | 
CC(C)Oc1ccc(-c2nnc([C@H]3C[C@H](NC(=O)c4ccccn4)C3)n2-c2ccccc2F)nc1 [Compound 8, N-(trans-3-(4-(2-Fluorophenyl)-5-(5-isopropoxypyridin-2-yl)-4H-1,2,4-triazol-3-yl)cyclobutyl)picolinamide] | 12 nM | 110 |  | 
CCOc1ccc(-c2nnc([C@H]3C[C@H](NC(=O)c4cccc5nc(C)cnc45)C3)n2-c2ccccc2F)nc1 [Compound 27, N-(trans-3-(5-(5-Ethoxypyridin-2-yl)-4-(2-fluorophenyl)-4H-1,2,4-triazol-3-yl)cyclobutyl)-2-methylquinoxaline-5-carboxamide] | 1.1 nM | 2.4 |  | 
O=C(N[C@H]1C[C@H](c2nnc(-c3ccccn3)n2-c2ccccc2F)C1)c1cccc2nccnc12 [Compound 30a, N-(trans-3-(4-(2-Fluorophenyl)-5-(pyridin-2-yl)-4H-1,2,4-triazol-3-yl)cyclobutyl)quinoxaline-5-carboxamide] | 1.6 nM | 0.29 | 0.286 | 
CCOc1ccc(-c2nnc([C@H]3C[C@H](NC(=O)c4ccnc5cccnc45)C3)n2-c2ccncc2)nc1 [Compound 18a, N-(trans-3-(5-(5-Ethoxypyridin-2-yl)-4-(pyridin-4-yl)-4H-1,2,4-triazol-3-yl)cyclobutyl)-1,5-naphthyridine-4-carboxamide] | 5.4 nM | 13 |  | 
CCOc1ccc(-c2nnc([C@H]3C[C@H](NC(=O)c4cccc5nc(C)c(C)nc45)C3)n2-c2ccccc2F)nc1 [Compound 28, N-(trans-3-(5-(5-Ethoxypyridin-2-yl)-4-(2-fluorophenyl)-4H-1,2,4-triazol-3-yl)cyclobutyl)-2,3-dimethylquinoxaline-5-carboxamide] | 2.6 nM | 4.3 |  | 
